Test results from patent publication US7960407B2, “Crystal forms of an imidazole derivative” (Requalia Pharma Inc., priority 2006, dated 2011).

Columns and labels:
[1] = solid-state stability of the crystal forms; type: physicochemical; conditions: qualitative comparison of the forms identified
[2] = hygroscopicity of the crystal form; type: physicochemical; conditions: solid form, qualitative

SMILES	stability of the crystal form [1]	other results
CCc1nc2c(C)nc(C)cc2n1-c1ccc(CCNC(=O)NS(=O)(=O)c2ccc(C)cc2)cc1 [Crystal Form C, N-[({2-[4-(2-Ethyl-4,6-dimethyl-1H-imidazo[4,5-c]pyridin-1-yl)phenyl]ethyl}amino)carbonyl]-4-methylbenzenesulfonamide]	less stable	stability of the crystal form ([1]; listed as C): (metastable)
CCc1nc2c(C)nc(C)cc2n1-c1ccc(CCNC(=O)NS(=O)(=O)c2ccc(C)cc2)cc1 [Crystal Form D, N-[({2-[4-(2-Ethyl-4,6-dimethyl-1H-imidazo[4,5-c]pyridin-1-yl)phenyl]ethyl}amino)carbonyl]-4-methylbenzenesulfonamide]	less stable	–
CCc1nc2c(C)nc(C)cc2n1-c1ccc(CCNC(=O)NS(=O)(=O)c2ccc(C)cc2)cc1 [Crystal Form G, N-[({2-[4-(2-Ethyl-4,6-dimethyl-1H-imidazo[4,5-c]pyridin-1-yl)phenyl]ethyl}amino)carbonyl]-4-methylbenzenesulfonamide]	less stable	–
CCc1nc2c(C)nc(C)cc2n1-c1ccc(CCNC(=O)NS(=O)(=O)c2ccc(C)cc2)cc1 [Example 2, 2-ETHYL-4,6-DI METHYL-1-(4-{2-[({[(4-METHYLPHENYL)SULFONYL]AMINO}CARBONYL)AMINO]ETHYL}PHENYL)-1H-IMIDAZO[4,5-c]PYRIDINE, reference compound]	–	stability of the crystal form ([1]; listed as N-[({2-[4-(2-Ethyl-4,6-dimethyl-1H-imidazo[4,5-c]pyridin-1-yl)phenyl]ethyl}amino): unstable

Second part, led by results:

stability of the crystal form [1]	SMILES	other results
most stable	CCc1nc2c(C)nc(C)cc2n1-c1ccc(CCNC(=O)NS(=O)(=O)c2ccc(C)cc2)cc1 [Polymorph Form A, N-[({2-[4-(2-Ethyl-4,6-dimethyl-1H-imidazo[4,5-c]pyridin-1-yl)phenyl]ethyl}amino)carbonyl]-4-methylbenzenesulfonamide]	hygroscopicity [2]: non-hygroscopic
stable	CCc1nc2c(C)nc(C)cc2n1-c1ccc(CCNC(=O)NS(=O)(=O)c2ccc(C)cc2)cc1 [Polymorph Form B, N-[({2-[4-(2-Ethyl-4,6-dimethyl-1H-imidazo[4,5-c]pyridin-1-yl)phenyl]ethyl}amino)carbonyl]-4-methylbenzenesulfonamide]	–
